Source: EPA's ToxRefDB 2

How the values were obtained:
[1] = system: dog; settings: Chronic toxicity; beagle; Oral; Feed; dose end: 52 week; group: systemic; systemic / clinical chemistry / albumin / albumin + systemic / clinical chemistry / triglycerides / triglycerides + systemic / pathology …
[2] = system: rat; settings: Prenatal developmental toxicity study, wistar, Oral, Gavage/Intubation, dose end: 15 GD
[3] = system: mouse; settings: Carcinogenicity, b6c3f1, Oral, Feed, dose end: 24 month, group: systemic
[4] = system: mouse; settings: Carcinogenicity, other, Oral, Feed, dose end: 26 month, group: systemic
[5] = system: rat; settings: Prenatal developmental toxicity study, wistar, Dermal, Topical, dose end: 15 GD
[6] = system: dog; settings: Subchronic oral toxicity in nonrodent, beagle, Feed, dose end: 13 week, group: systemic, systemic / organ weight / liver / absolute + systemic / organ weight / liver / relative to body weight + systemic / pathology microscopic / …
[7] = system: rat; settings: Subchronic oral toxicity in rodents, wistar, Feed, dose end: 90 day, group: systemic
[8] = system: rabbit; settings: Prenatal developmental toxicity study, himalayan, Oral, Gavage/Intubation, dose end: 18 GD
[9] = system: rat; settings: Combined chronic toxicity/carcinogenicity; wistar; Oral; Feed; dose end: 24 month; group: systemic; systemic / in life observation / body weight / body weight + systemic / in life observation / body weight / body weight gain + systemic / …
[10] = group: developmental, developmental / developmental malformation / bone / incomplete ossification + developmental / developmental malformation / bone / unossified…
[11] = group: maternal, systemic / in life observation / body weight / body weight + systemic / in life observation / body weight / body weight gain + systemic / in…
[12] = systemic / pathology microscopic / adrenal gland / hyperplasia + systemic / clinical chemistry / bilirubin / total bilirubin
[13] = systemic / pathology gross / skin / desiccation + systemic / pathology microscopic / ear / hyperkeratosis + systemic / pathology microscopic…
[14] = group: developmental, developmental / developmental malformation / bone / incomplete ossification + developmental / developmental malformation / bone / unossified
[15] = group: maternal, systemic / in life observation / clinical signs / erythema + systemic / pathology gross / skin / [other]
[16] = group: maternal, systemic / in life observation / clinical signs / erythema + systemic / pathology gross / skin / [other] + systemic / pathology gross / skin…
[17] = systemic / clinical chemistry / cytochrome p450, nos / cytochrome p450, nos + systemic / pathology microscopic / esophagus / hyperkeratosis…
[18] = group: developmental, developmental / developmental malformation / bone / [other] + developmental / developmental malformation / bone / absent + developmental / …
[19] = group: maternal, systemic / in life observation / body weight / body weight gain + systemic / in life observation / clinical signs / anal prolapse + systemic…

`CCCN(CC)CC1COC2(CCC(C(C)(C)C)CC2)O1` (stereo not drawn) [Spiroxamine] showed an LEL [1] of 25.8 mg/kg/day, an LOAEL [1] of 25.8 mg/kg/day and an NEL [1] of 2.48 mg/kg/day. It also gave an NOAEL [1] of 2.48 mg/kg/day, an LOAEL ([2]; group: developmental, developmental / developmental malformation / bone / [other] + developmental / developmental malformation / mouth / jaw / cleft palate + …) of 100 mg/kg/day and an LEL [2, 10] of 10 mg/kg/day. It also gave an NEL [2, 10] of under 10 mg/kg/day, an NOAEL [2, 10] of 30 mg/kg/day and an LEL [2, 11] of 100 mg/kg/day. For the same compound, the LOAEL [2, 11] was 100 mg/kg/day, the NEL [2, 11] was 30 mg/kg/day and the NOAEL [2, 11] was 30 mg/kg/day. The LOAEL ([3]; systemic / pathology microscopic / adrenal gland / hyperplasia) was 150 mg/kg/day, the LEL [3, 12] was 41 mg/kg/day and the NEL [3, 12] was under 41 mg/kg/day. The NOAEL ([3]; systemic / pathology microscopic / adrenal gland / hyperplasia + systemic / pathology microscopic / adrenal gland / adenoma + systemic / …) was 41 mg/kg/day, the LOAEL [4, 13] was 59.3 mg/kg/day and the NEL [4, 13] was 4.5 mg/kg/day. It also gave an NOAEL [4, 13] of 36.7 mg/kg/day, an LEL ([4]; systemic / pathology microscopic / esophagus / acanthosis + systemic / pathology microscopic / esophagus / hyperkeratosis + systemic / …) of 36.7 mg/kg/day and an LEL [5, 14] of 80 mg/kg/day. It also gave an LOAEL [5, 14] of 80 mg/kg/day, an NEL [5, 14] of 20 mg/kg/day and an NOAEL [5, 14] of 20 mg/kg/day. For the same compound, the LOAEL [5, 15] was 5 mg/kg/day, the NOAEL [5, 15] was under 5 mg/kg/day and the LEL [5, 16] was 5 mg/kg/day. It also gave an NEL [5, 16] of under 5 mg/kg/day, an LEL [6] of 20 mg/kg/day and an LOAEL [6] of 20 mg/kg/day. The NEL [6] was 0.66 mg/kg/day, the NOAEL [6] was 0.66 mg/kg/day and the LEL [7, 17] was 9.3 mg/kg/day. It also gave an NEL [7, 17] of 1.9 mg/kg/day, an NOAEL [7, 17] of 9.3 mg/kg/day and an LOAEL ([7]; systemic / pathology microscopic / esophagus / hyperkeratosis + systemic / pathology microscopic / esophagus / hyperplasia + systemic / …) of 54.9 mg/kg/day. It also gave an LEL [8, 18] of 80 mg/kg/day, an LOAEL [8, 18] of 80 mg/kg/day and an NEL [8, 18] of 20 mg/kg/day. The NOAEL [8, 18] was 20 mg/kg/day, the LEL [8, 19] was 80 mg/kg/day and the LOAEL [8, 19] was 80 mg/kg/day. The NEL [8, 19] was 20 mg/kg/day, the NOAEL [8, 19] was 20 mg/kg/day and the LEL [9] was 32.8 mg/kg/day. For the same compound, the LOAEL [9] was 32.8 mg/kg/day, the NEL [9] was 4.22 mg/kg/day and the NOAEL [9] was 4.22 mg/kg/day.
